Data taken from US6710084B2, “Inhibition of TNFα-initiated neutrophil response” (Brigham and Women's Hospital, priority 1999, dated 2004).

Columns and labels:
[1] = test system: IL-1β; experiment: TNFα-induced IL-1β release by human PMN; format: cell-based; conditions: for inhibition of IL-1β release: 100 nM compound, human PMN
Excerpt: Supernatants were collected, and IL-1β was quantitated by ELISA. Results are expressed as mean±SD of duplicates, and are from one experiment representative of n=3. […] Values represent the mean ±SEM, n=3. At all time intervals tested, TNFα induced a significant appearance of IL-1β over vehicle-treated cells (*p<0.01).
(§1) Human and mouse recombinant TNFα and human recombinant GM-CSF were obtained from Boehringer Mannheim (Indianapolis, Ind.). Dulbecco's PBS (Mg^++ and Ca^++-free), RPMI-1640 and FCS were purchased from Bio Whittaker Inc. (Walkersville, Md.). Ficoll-Hypaque was from Organon Teknika Corp. (Durham, N.C.) and Hank's balanced salt solution was purchased from Gibco BRL (Grand Island, N.Y.). Serum bovine albumin, dextran, antibiotics, L-glutamine, cytochrome C, superoxide dismutase and zymosan were obtained from Sigma (St. Louis, Mo.). The assessment of human IL-1β in supernatants was performed by using an immunometric assay with acetylcholine esterase (Cayman Chemical, Ann Arbor, Mich.). Murine IL-1β was assessed using an ELISA from Endogen (Woburn, Mass.). ELISAs for IL-4 and IL-10 were from Amersham (Arlington Heights, Ill.); MIP-2 and IL-13 ELISAs were from R&D Systems (Minneapolis, Minn.). LXA4 and ATL metabolically stable analogs were prepared and characterized, including nuclear magnetic resonance spectroscopy, as in (14). Concentrations of each LX analog were determined using an extinction coefficient of 50,000 M^−1.cm^−1.just prior to each experiment. Where indicated, statistical analyses were performed using Student's non-paired t-test (two-tailed), and significance (*) was considered to be attained when P was <0.05.

[2] = test system: human PMN; experiment: TNFα-stimulated superoxide anion generation by human PMN (cytochrome C reduction); format: cell-based; conditions: for inhibition of TNFα-stimulated superoxide anion generation: 10 nM compound, 5 min, then TNFα 50 ng/ml
Description: Human PMN were incubated with either vehicle alone or indicated concentrations of LXA4, 15 R/S-methyl-LXA4 or 16-phenoxy-LXA4 for 5 min and then with TNFα (50 ng/ml) for an additional 10 min. Values are the mean±SEM for LXA4 (n=3), 15 R/S-methyl-LXA4 (n=4) or 16-phenoxy-LXA4 (n=3).
Venous blood from healthy donors was collected using sterile conditions using acid citrate dextrose (ACD) as an anticoagulant, and PMN were isolated as in (15). PMN were suspended in cold (4° C.) Hank's medium (supplemented with 1.6 mM Ca^++, 0.1% FCS, 2 mM L-glutamine, 1% penicillin, and 2% streptomycin, pH 7.4). […] To examine superoxide production, PMN (1.0×10^6/ml) were placed at 37° C. (3 min) and then exposed to either vehicle (0.1% ethanol) or synthetic LXA4, 15R/S-methyl LXA4 or 16-phenoxy-LXA4 for 5 min at 37° C. Before adding TNFα (50 ng/ml), PMN were incubated with cytochrome C (0.7 mg/ml) for 10 min at 37° C. […] reduction of cytochrome C was terminated by rapidly placing tubes in an ice-water bath. The extent of cytochrome C reduction in each supernatant was determined at 550 nm in reference to control values obtained when superoxide dismutase was added before a stimulus or vehicle control. Cytochrome C reduction was quantitated using the extinction coefficient of 21.1/mmol/L.
TNFα, although a modest agonist of O2^−generation by human PMN, is a physiologically relevant stimulus for the generation of reactive oxygen species (ROS) by human PMN that can play critical roles in local tissue injury during both inflammation and reperfusion (Tsujii, M., S. Kawano, S. Tsuji, H. Sawaoka, M. Hori, and R. N. DuBois. 1998. Cyclooxygenase regulates angiogenesis induced by colon cancer cells. Cell 93:705-716; Shibuya, H., N. Ohkohchi, S. Tsukamoto, and S. Satomi. 1997. Tumor necrosis factor-induced, superoxide-mediated neutrophil accumulation in cold ischemic/reperfused rat liver. Hepatology 26:113-120; Jaeschke, H., A. Farhood, and C. W. Smith. 1990. Neutrophils contribute to ischemia/reperfusion injury in rat liver in vivo. FASEB J. 4:3355-3359). In FIG. 1, the impact of LXA4 and ATL related bioactive stable analogs were evaluated on TNFα stimulated superoxide anion production. […] 15R/S-methyl-LXA4 covers both LXA4 and ATL in structure, and 16-phenoxy-LXA4 is a LXA4 analog (see FIG. 1).

[3] = test system: IL-1β; experiment: IL-1β levels in supernatants of PMN incubated with TNFα, GM-CSF or zymosan; format: cell-based, human
Excerpt: as §1, with “<0.05. […]” for “<0.05.”

[4] = test system: PMN; experiment: PMA- or FMLP-stimulated O2- production by PMN; format: cell-based, human
[5] = test system: leukocyte infiltration; experiment: TNFα-induced leukocyte infiltration in murine air pouches
Description: One ml of sterile PBS containing either 0.1% ethanol, TNFα, 15 R/S-methyl-LXA4, or TNFα plus 15 R/S-methyl-LXA4 was injected into the pouches, and the exudates were collected at indicated time periods. The total number of leukocytes was counted as in Materials & Methods. The results are expressed as mean±SEM from three different mice for each point.
Six to eight week old male BALB/c mice were obtained from Taconic Farms (Germantown, N.Y.). Air pouches were raised on the dorsum by s.c. injection of 3 ml of sterile air on day 0 and day 3. All experiments were conducted on day 6 (16). Individual air pouches (one per mouse) were injected with either vehicle alone (0.1% ethanol), TNFα, 15 R/S-methyl-LXA4 or TNFα plus 15 R/S-methyl-LXA4, and each was suspended in 1 ml endotoxin-free PBS immediately before injection into pouch cavities. At given intervals, the mice were sacrificed and individual air pouches were lavaged three times with sterile PBS (1 ml). The exudates were centrifuged at 2000 RPM (5 min) and the supernatants were removed. Cell pellets were suspended in PBS (200 μl) for enumeration and assessed for viability. Fifty μl of each cell suspension was mixed with 150 μl 30% BSA and then centrifuged onto microscope slides at 500 RPM for 5 min using a cytospin centrifuge, air dried, and stained with Giemsa-Wright.
Also, inflammatory exudates were collected 4 h after injection with vehicle alone, TNFα, 15 R/S-methyl-LXA4 alone, or TNFα plus 15 R/S-methyl-LXA4, and cell types were enumerated.

[6] = test system: MIP-2; experiment: MIP-2 in murine air pouch exudates (ELISA); format: in vivo, BALB/c mice
Description: (§2) Experiments were conducted as described in FIG. 5 legend. Quantitation for IL-1β, IL-4, IL-10, IL-13 and MIP-2 was performed using ELISA with air pouch cell-free exudates. […] Changes in IL-1β, MIP-2 and IL-4 were significant at all tested time intervals (p<0.01).
as §1
(§3) Exudates from selected time intervals were collected and cell-free supernatants assessed for the presence of these murine cytokines. TNFα induced maximal detectable amounts of MIP-2 and IL-1β within 90 minutes (not shown). 15 R/S-methyl-LXA4 (25 mnoles) inhibited TNFα-stimulated MIP-2 and IL-1β release by 48% and 30% respectively (FIG. 6). […] This stimulation of IL-4 was observed both in the absence as well as presence of TNFα. Neither IL-10 nor IL-13 was detected within the pouch exudates.

[7] = test system: IL-1β; experiment: IL-1β in murine air pouch exudates (ELISA); format: in vivo, BALB/c mice
Description: as §2, §1, §3

[8] = target: LXA4 receptor (Homo sapiens, UniProt P25090); experiment: Involvement of LXA4 receptor in TNFα-stimulated IL-1β release (anti-LXA4-R antibodies)
Sequence of LXA4 receptor (P25090 whole entry): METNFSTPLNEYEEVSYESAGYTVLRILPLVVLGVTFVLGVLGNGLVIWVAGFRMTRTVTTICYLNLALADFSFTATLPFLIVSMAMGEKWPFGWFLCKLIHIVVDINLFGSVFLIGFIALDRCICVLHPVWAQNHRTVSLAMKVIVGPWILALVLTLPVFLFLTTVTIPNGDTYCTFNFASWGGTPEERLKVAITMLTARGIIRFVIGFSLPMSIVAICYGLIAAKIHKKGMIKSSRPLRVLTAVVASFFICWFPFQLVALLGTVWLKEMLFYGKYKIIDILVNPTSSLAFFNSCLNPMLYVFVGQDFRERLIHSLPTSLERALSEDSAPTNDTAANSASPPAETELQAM
Description: PMN were incubated with either IgG purified from pre-immune serum (50 μg/ml) or anti-LXA4 receptor (50 μg/ml) for 1 h at 4° C., then exposed to agonists for 12 h at 37° C. and 5% CO2. Values are expressed as mean±SD from an experiment performed in triplicate, which is representative of three distinct experiments each performed with different donors (*p<0.01).
PMN were incubated with ˜50 μg/ml of either preimmune protein-A purified IgG or IgG directed against LXA4-R for 1 h at 4° C. prior to exposure to TNFα (10 ng/ml) and 15 R/S-methyl-LXA4 (100 nM).

[9] = test system: IL-4; experiment: IL-4 in murine air pouch exudates (ELISA); format: in vivo, BALB/c mice; conditions: both in the absence as well as presence of TNFα
Description: as §2
as §1, with “ELISAs for IL-4 and IL-10 were from Amersham (Arlington Heights, Ill.); MIP-2 and IL-13 ELISAs were from R&D Systems (Minneapolis, Minn.). LXA4 and ATL metabolically stable analogs were prepared and characterized, including nuclear magnetic resonance spectroscopy, as in (14).” left out, “Where indicated, statistical analyses were performed using Student's non-paired t-test (two-tailed), and significance (*) was considered to be attained when P was <0.05.” left out
Exudates from selected time intervals were collected and cell-free supernatants assessed for the presence of these murine cytokines. […] Neither IL-10 nor IL-13 was detected within the pouch exudates.

[10] = test system: IL-1β messenger RNA; experiment: TNFα-triggered IL-1β gene expression in PMN (Northern blot); conditions: 100 nM compound plus TNFα 10 ng/ml; 6 h
Description: PMN were incubated with either 0.1% ethanol (vehicle) or 15 R/S-methyl-LXA4 at 10, 100, and 1000 nM, in the presence or absence of TNFα (10 ng/ml), for 6 h at 37° C. Northern blots were performed in order to detect IL-1β messenger RNA.
PMN were exposed to increasing concentrations of 15 R/S-methyl-LXA4, 16-phenoxy-LXA4 or native LXA4 in the presence of TNFα (10 ng/ml) or vehicle alone.

[11] = injected alone, 4 h post-injection, TNFα 10 ng or compound 25 nmoles
[12] = compound 25 nmoles plus TNFα 10 ng, 4 h post-injection
[13] = 25 mnoles, air pouch exudates (FIG. 6)

Molecule: COC(=O)CCCC(O)C(O)C=CC=CC=CC=CC(O)COc1ccccc1 (stereo not drawn) [16-phenoxy-LXA4, 16 phenoxy-lipoxin A4 methyl ester]
- inhibition of IL-1β release ([1]; TNFα 10 ng/ml): approximately 40%
- potency relative to native LXA4 as inhibitor of TNFα-stimulated superoxide generation [2]: approximately three times more potent
- inhibition of TNFα-stimulated superoxide anion generation [2]: 93.7±3.2%

Molecule: GM-CSF: human recombinant GM-CSF, agonist of IL-1β release
- approximate EC50 for increase in IL-1β levels in supernatants ([3]; agonist GM-CSF): ~10 U/ml

Molecule: CCCCC[C@H](O)/C=C/C=C\C=C\C=C\[C@@H](O)[C@@H](O)CCCC(=O)O (relative stereo) [LXA4, 5S, 6R, 15S-trihydroxy-7,9,13-trans-11-cis-eicosatetraenoic acid, reference compound]
- inhibition of IL-1β release ([1]; TNFα 10 ng/ml): comparable
- effect on TNFα-induced IL-1β release ([1]; LXA4 100 nM, TNFα 10 ng/ml, 20 h (FIG. 2A)): specifically inhibited
- inhibition of TNFα-stimulated superoxide anion generation [2]: 34.3±2.3%
- inhibition of FMLP-stimulated O2- production [4]: neither LXA4 nor its analogs inhibit
- inhibition of PMA-stimulated O2- production ([4]; PMA 100 nM, n=3): neither LXA4 nor its analogs inhibit

Molecule: TNFα [reference compound]
- approximate EC50 for increase in IL-1β levels in supernatants ([3]; agonist TNFα): ~10 ng/mL
- Number of leukocytes present in the pouch: Eosinophils/Basophils [5, 11]: 0.30 ± 0.01 x 10^6
- Number of leukocytes present in the pouch: Monocytes/Macrophages [5, 11]: 0.20 ± 0.01 x 10^6
- Number of leukocytes present in the pouch: Neutrophils [5, 11]: 2.40 ± 0.10 x 10^6
- time of maximal accumulation of leukocytes in the air pouch ([5]; murine TNFα 10 ng/ml): 4 h
- time to maximal detectable amounts of MIP-2 ([6]; TNFα-injected pouches): ≤ 90 min
- time to maximal detectable amounts of IL-1β ([7]; TNFα-injected pouches): ≤ 90 min

Molecule: CCCCCC(C)(O)/C=C/C=C\C=C\C=C\[C@@H](O)[C@@H](O)CCCC(=O)OC (stereo partly drawn) [15 R/S-methyl-LXA4, 15R/S-methyl-LXA4-methyl ester]
- inhibition of IL-1β release ([8]; 100 nM compound, TNFα 10 ng/ml, 12 h (FIG. 4)): about 50%
- IL-1β appearance when added together with anti-LXA4-R antibodies in the presence of TNFα ([8]; 100 nM compound, antibodies ~50 μg/ml): did not further inhibit IL-1β appearance
- stimulation of IL-1β appearance within supernatants, agent alone ([8]; without TNFα): neither anti-LXA4-R antibodies nor 15 R/S-LXA4 alone stimulated significant amounts of IL-1β
- inhibition of TNFα-induced IL-1β release ([1]; 10 nM compound, TNFα 10 ng/ml (FIG. 2B)): clear statistically significant inhibition
- time within which inhibition of IL-1β release was evident ([1]; 10 nM compound, more prominent after 24 h): ≤ 6 h
- inhibition of IL-1β release ([1]; TNFα 10 ng/ml): approximately 60%
- appearance of IL-4 within the exudates [9]: stimulated the appearance of IL-4
- time at which inhibition of leukocyte recruitment was evident ([5]; 25 nmoles): 1 h
- inhibition of TNFα-stimulated recruitment of leukocytes to the air pouch ([5]; 25 nmoles into pouch, murine TNFα 10 ng/ml (FIG. 5)): 62%
- leukocyte infiltration at 8 h ([5]; 8 h, 25 nmoles (FIG. 5, insert)): remained significantly reduced
- reduction in leukocyte infiltration ([5]; between 2 h and 4 h, 25 nmoles): more than 60%
- Number of leukocytes present in the pouch: Eosinophils/Basophils [5, 12]: 0.13 ± 0.01 x 10^6
- Number of leukocytes present in the pouch: Monocytes/Macrophages [5, 12]: 0.10 ± 0.01 x 10^6
- Number of leukocytes present in the pouch: Neutrophils [5, 12]: 0.98 ± 0.10 x 10^6
- Percent inhibition of TNFα-induced infiltration: Eosinophils/Basophils [5, 12]: (56.0%)
- Percent inhibition of TNFα-induced infiltration: Monocytes/Macrophages [5, 12]: (50%)
- Percent inhibition of TNFα-induced infiltration: Neutrophils [5, 12]: (59.1%)
- Number of leukocytes present in the pouch: Eosinophils/Basophils [5, 11]: 0.03 ± 0.01 x 10^6
- Number of leukocytes present in the pouch: Monocytes/Macrophages [5, 11]: 0.14 ± 0.01 x 10^6
- Number of leukocytes present in the pouch: Neutrophils [5, 11]: 0.25 ± 0.01 x 10^6
- leukocyte infiltration after injection of the analog alone ([5]; without TNFα): did not cause a significant leukocyte infiltration
- mononuclear cell influx, compound alone ([5]; without TNFα, 4 h): small but statistically significant increase
- inhibition of TNFα-stimulated MIP-2 release [6, 13]: 48%
- MIP-2 release, compound alone in the air pouch ([6]; without TNFα): did not stimulate
- potency relative to native LXA4 as inhibitor of TNFα-stimulated superoxide generation [2]: approximately three times more potent
- inhibition of TNFα-stimulated superoxide anion generation [2]: 81.3±14.1%
- decrease of IL-1β messenger RNA levels compared to TNFα alone [10]: approximately 60%
- inhibition of TNFα-stimulated IL-1β release [7, 13]: 30%
- IL-1β release, compound alone in the air pouch ([7]; without TNFα): did not stimulate
